The values below are quoted from earlier work in US20040087484A1, “Combination of organic compounds” (priority 2003, published 2004).

SMILES strings stand for the structures.

The test system of the data set is male rats. To be noted: used for the treatment of hypertensive disorder in male rats.

For the compound `CCCCc1nc(Cl)c(CO)n1Cc1ccc(-c2ccccc2-c2nn[nH]n2)cc1` [losartan], the “preservation of sexual function” value is reported as “advantage in preservation of sexual function”.
